Starred links: 1 amine or outer side, 2 acyl side, 3 side chain; linkers in the order of their positions; H or OH if unused. Non-standard residues stand in square brackets, D forms with d. Residues, ends and D or L forms follow the SMILES beside them. *: point of attachment. Pentanoyl(2S-OH,3S-Me) = CC[C@H](C)[C@H](O)C(=O)*; X1 = C/C=C(/N[*:1])C(=O)[*:2]; dOrn = NCCC[C@@H](N)C(=O)O; Valol = CC(C)[C@@H](CO)N*
Legend:
[1] = test system: methicillin-resistant Staphylococcus aureus; test: agar dilution antimicrobial assay (MIC); format: cell-based
Protocol: (§1) A solution of Bogorol A was prepared by dissolving 3 mg of e compound in 300 μL of dimethylsulfoxide (DMSO). Serial two-fold dilutions were prepared in DMSO, and 50 μL of each dilution was mixed with 5 mL of melted Mueller-Hinton agar to achieve a final Bogorol A concentration range of 200 to 0.48 μg/ml. After the agar solidified, standardized suspensions of the target organisms were inoculated onto the surface of the agar using a multipoint inoculator. The standardized suspensions were prepared in tryptic soy broth adjusted to a 1.0 McFarland turbidity standard. The plates were incubated over night at 37° C. Activity of Bogorol A was indicated by a lack of growth of any target organism at its point of inoculation.

[2] = test system: Stenotrophomonas maltophilia; settings: agar dilution
Protocol: as §1

[3] = test system: Candida aibicans; settings: other target organisms tested (Candida aibicans); agar dilution
Protocol: as §1

[4] = test system: Berkholderia cepacia; settings: other target organisms tested (Berkholderia cepacia); agar dilution
Protocol: as §1

[5] = test system: vancomycin-resistant Enterococcus faecalis; settings: agar dilution
Protocol: as §1

[6] = test system: Drug Resistant Pseudomonas aeruginosa; settings: other target organisms tested (Drug Resistant Pseudomonas aeruginosa); agar dilution
Protocol: as §1

[7] = test system: Escherichia coli; settings: agar dilution
Protocol: as §1

In the case of `C/C=C(/NC(=O)[C@@H](O)[C@@H](C)CC)C(=O)N[C@@H](CC(C)C)C(=O)N[C@H](CCCN)C(=O)N[C@H](C(=O)N[C@H](C(=O)N[C@H](C(=O)N[C@H](CCCCN)C(=O)N[C@H](C(=O)N[C@@H](CC(C)C)C(=O)N[C@@H](CCCCN)C(=O)N[C@H](Cc1ccc(O)cc1)C(=O)N[C@H](CC(C)C)C(=O)N[C@H](CO)C(C)C)C(C)C)C(C)C)C(C)C)[C@@H](C)CC` [Bogorol A] ({Pentanoyl(2S-OH,3S-Me)}-[X1]L[dOrn]IVV[dK]VLK[dY][dL]-Valol), the “antimicrobial activity (in words)” value [1] is reported as “active”, the “antimicrobial activity (in words)” value [2] is reported as “moderately active” and the “antimicrobial activity (in words)” value [3] is reported as “essentially inactive”. The “antimicrobial activity (in words)” value [4] was “essentially inactive”, the “antimicrobial activity (in words)” value [5] was “active” and the “antimicrobial activity (in words)” value [6] was “essentially inactive”. For the same molecule, the “antimicrobial activity (in words)” value [7] was “moderately active”.

— patent US6784283B2, “Peptide antibiotics” (The University of British Columbia, priority 2000, dated 2004)
